Reference: PubChem BioAssay AID652047 (Broad Institute, 2013)
The source made the active and inactive calls.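 The calls were made as follows: active = fitted curve reaches activity change of -35% signal drop at a concentration below twice the top valid tested dose; inactive = the rest, including activity in the opposite direction.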

Assay: growth inhibition of P. falciparum 3D7, dose response, 3D7 strain, red blood cells, SYBR Green, cherry-picked (AID 652047);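 also: 0% = untreated neutral control wells and -100% = mefloquine positive control wells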
Conditions: P. falciparum 3D7 in RBCs, SYBR Green DNA fluorescence; at 16 µM (top of the series)

Row | SMILES | activity change, negative = inhibition
1 | CC1Oc2ccccc2C=C1/C=N/Nc1ccc(C(=O)O)cc1 (stereo unspecified) | 17% (inactive)

Same assay, conditions: P. falciparum 3D7 in RBCs, SYBR Green DNA fluorescence; at 50 µM (top of the series)

Row | SMILES | activity change, negative = inhibition
2 | O=C(O)CSc1nc(-c2ccc(Cl)cc2)nc2c1oc1ccccc12 | -31.1% (inactive)
3 | CCOc1ccc(N/N=C(/C#N)C(N)=O)cc1 | -29.8% (inactive)
4 | O=C(c1ccc(Cl)cc1)N1CCN(c2ccc(F)cc2)CC1 | -26.4% (inactive)
5 | CCCCC(CC)c1nnc(NC(=O)c2cccs2)s1 (stereo unspecified) | -12.7% (inactive)
6 | COC(=O)COC(=O)c1ccccc1NC(=O)c1ccccc1 | -21% (inactive)
7 | CCCSC(=S)c1c(C)[nH]n(-c2ccccc2)c1=O | -28.2% (inactive)
8 | Cc1cccc(C)c1N1C(=O)C2ON(c3ccccc3)C(c3ccncc3)C2C1=O (stereo unspecified) | -3.22% (inactive)
9 | COC(OC)c1ccc(C#N)c(SCc2ccccc2)n1 | -2.94% (inactive)
10 | CCCn1c(=O)c(C(=O)NCc2ccc(OC)c(OC)c2)c(O)c2ccccc21 | -23.6% (inactive)
11 | FC(F)(F)c1nc(SCc2ccc(Cl)cc2Cl)n[nH]1 | 8.98% (inactive)
12 | CC1=NN(C(N)=S)C(=O)C1N=Nc1cccc(Cl)c1C (stereo unspecified) | -20.7% (inactive)
13 | CCCCc1ccc(-n2c(Cc3cccs3)n[nH]c2=S)cc1 | -28% (inactive)
14 | CCCCn1c(=O)c(C(=O)NCc2ccncc2)c(O)c2ccccc21 | 2.98% (inactive)
15 | CC(C)CSc1n[nH]c(=S)s1 | -1.47% (inactive)
16 | COc1cccc(CC(=O)Nc2ccc3nc(C)sc3c2)c1 | -2.47% (inactive)
17 | Nc1nc(-c2ccc(Oc3ccccc3)cc2)cs1 | -0.359% (inactive)
18 | O=c1c(CO)cc(CO)cc(CO)c1O | -103% (inactive)
19 | COC(=O)C1=NN(C(=O)c2cccc(Br)c2)C(O)(c2ccc(Cl)cc2)C1 (stereo unspecified) | -78.6% (inactive)
20 | COc1cccc(C(C)=C2SC(=S)NC2=O)c1 | -18.5% (inactive)
21 | FC(F)(F)c1cccc(N2CCc3cn[nH]c32)c1 | -2.82% (inactive)

Row | SMILES | activity change, negative = inhibition
22 | CCC(Oc1ccc(Br)cc1Cl)C(=O)Nc1nnc(C2CC2)s1 (stereo unspecified) | -18.5% (inactive)
23 | c1ccc(Cn2cc(-c3cccnc3)cn2)cc1 | -24.2% (inactive)
24 | COc1ccc(N(C)S(=O)(=O)c2ccc(Cl)c(C(=O)NNC(=O)c3ccccc3O)c2)cc1 | -2.22% (inactive)
25 | Cc1nc2ccc(C(=O)NCc3ccc4c(c3)OCO4)cc2s1 | 1.05% (inactive)
26 | CC1CCN(c2ccc3c(c2)S(=O)(=O)c2ccccc2C3=O)CC1 | -3.18% (inactive)
27 | CCn1c(CNc2ccc(Cl)cc2)nnc1SCc1ccc(Cl)cc1 | -49.2% (inactive)
28 | Oc1c(Br)cc(-c2ccccc2)cc1Br | -1.67% (inactive)
29 | Cc1ccc(C(=O)C(SC(C)(C)C)n2cncn2)cc1 (stereo unspecified) | -13% (inactive)
30 | CC(C)NC(=O)NC(=O)COC(=O)c1ccc([N+](=O)[O-])cc1Cl | 16.4% (inactive)
31 | COc1cc2c(c(OC)c1OC)-c1ccc(O)c(=O)cc1[C@@H](NC(C)=O)CC2 | -10.9% (inactive)
32 | CCn1c(CNc2ccc(Cl)cc2)nnc1SCc1ccccc1 | -1.95% (inactive)
33 | CCc1ccc(S(=O)(=O)N(C(=O)c2ccncc2)c2ccc(OC(=O)c3ccncc3)cc2)cc1 | -20% (inactive)
34 | O=C1N(c2ccc(Cl)cc2)C(c2cccnc2)N2CCCN12 (stereo unspecified) | -3.96% (inactive)
35 | O/N=C/c1ccccc1OCc1ccc(Cl)cc1 | -27.3% (inactive)
36 | Nc1nc2sc3c(c2c(=O)s1)CCCC3 | -14.6% (inactive)
37 | CC12CCC(O)CC1=CCC1C2CCC2(C)C3=NN=CC3CC12 (stereo unspecified) | -27.5% (inactive)
38 | CCOC(=O)c1ccc(N2C(=O)CC(N3CCC(O)(c4ccc(Cl)cc4)CC3)C2=O)cc1 (stereo unspecified) | 7.67% (inactive)
39 | O=C(c1ccccc1)c1ccc(Cn2cc(-c3ccccc3)nn2)cc1 | -9.93% (inactive)
40 | O=C(c1ccccc1)N1C(=O)C(c2ccccc2)Oc2ccccc21 (stereo unspecified) | -36.8% (inactive)
41 | c1ccc(-c2ccc(OCCCn3cncn3)cc2)cc1 | 6.71% (inactive)
